Laboratory results reported in PubChem BioAssay (NCI).
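48-hour exposure; five concentrations; linearly interpolated endpoints. TGI: total growth inhibition.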

Assays:
Test in all cases: NCI-60 cell line screen, 48 h
[1] = tested on: OVCAR-4 ovarian
[2] = tested on: SK-OV-3 ovarian
[3] = tested on: EKVX NSCLC
[4] = tested on: HOP-62 NSCLC
[5] = tested on: 786-0 renal
[6] = tested on: RXF 393 renal
[7] = tested on: HL-60(TB) leukemia
[8] = tested on: SK-MEL-5 melanoma
[9] = tested on: MDA-N
[10] = tested on: NCI-H460 lung
[11] = tested on: KM12 colon

| SMILES | TGI [1] [µM] | TGI [2] [µM] | TGI [3] [µM] | TGI [4] [µM] | TGI [5] [µM] | TGI [6] [µM] | TGI [7] [µM] | TGI [8] [µM] | TGI [9] [µM] | TGI [10] [µM] | TGI [11] [µM] |
| --- | --- | --- | --- | --- | --- | --- | --- | --- | --- | --- | --- |
| CC(C)NC(=O)OCc1c(COC(=O)NC(C)C)c(-c2ccc[n+](COC(=O)C3CCCCC3)c2)n2c1CCC2 | > 100 | > 100 | > 100 | > 100 | > 100 | > 100 | > 100 | > 100 | > 100 | > 100 | > 100 |
| CN(C)/C=C/c1ccnc2c1C(=O)c1ccccc1C2=O | 66 | > 100 | 44.3 | 62.6 | 73.6 | > 100 | > 55.5 | 4.22 | 3.03 | 7.13 | > 64.2 |
| CCC1(CC)C(=O)N(C(=O)c2ccc(Cl)cc2)N(C(=O)c2ccccc2Cl)C1=O | > 100 | > 100 | 24.9 | > 100 | > 100 | > 100 | > 100 | > 100 | > 100 | 41.8 | > 100 |
| N#Cc1ccc(/C=C2\Cc3ccccc3C2=O)cc1 | > 100 | > 100 | > 100 | > 100 | > 100 | > 100 | > 100 | > 100 | > 100 | > 100 | > 100 |
| O=C1NC(N2CCCC(CO)C2)=N/C1=C\c1ccc(O)cc1 (configuration not stated) | > 100 | > 100 | > 100 | > 100 | > 100 | > 100 | > 100 | > 100 | > 100 | – | > 100 |
| C[N+]12C=CC=C1C(N1CCCC1)c1sc(-c3ccc(Cl)cc3)cc12 (configuration not stated) | 33.4 | 32.8 | 79 | 31.3 | 28.8 | 31.9 | – | 31.8 | 30.4 | 32.6 | 33.4 |
| CC(C)(Oc1ccc(C2C[C@H]2Cl)cc1)C(=O)O (some centres not stated) | > 100 | > 100 | > 100 | > 100 | > 100 | > 100 | > 100 | > 100 | > 100 | > 100 | > 100 |
| CN(C)CCCN1c2ccc3ccccc3c2Sc2cccc(Cl)c21 | 13.8 | 26.4 | 13.5 | 9.32 | 8.84 | 10.4 | 3.99 | 9.59 | 5.51 | 3.25 | 4.28 |
| COc1cc(OC)cc(N(C)Cc2cnc3nc(N)nc(N)c3c2C)c1 | > 100 | > 100 | > 100 | > 36.1 | > 100 | > 100 | > 100 | > 100 | > 100 | > 100 | > 100 |
| CC(=S)NC1C(Oc2ccc3c(C)cc(=O)oc3c2)OC(CO)C(O)C1O (configuration not stated) | > 100 | > 100 | > 100 | > 100 | – | > 100 | > 100 | > 100 | > 100 | > 100 | > 100 |
| O=C(C(=O)n1ccc2ccccc21)c1c[nH]c2ccccc12 | > 10 | > 10 | > 10 | > 10 | > 10 | > 10 | > 10 | > 10 | > 10 | > 10 | > 10 |
| CCO/C=N/C1=C(C#N)C(c2ccc(OC)c(OC)c2)c2c(-c3ccccc3)nn(-c3ccccc3)c2O1 (configuration not stated) | – | 60.2 | 33.1 | > 100 | 29.2 | 29.8 | 8.85 | 24.4 | 35.5 | > 100 | 22.1 |
| Clc1ccc(CCN2CCN(CCCc3ccccc3)CC2)cc1Cl | 31.4 | 35.1 | 32.9 | 35.8 | 30.2 | – | 44.7 | 29.9 | 31.4 | 33.5 | 32.1 |
| C[C@H]1C(=O)C2=C[C@H]1CCC(=O)[C@]1(C)CCCC(C)(C)[C@H]1C[C@H]2O | > 100 | > 100 | 31.9 | > 100 | 32.5 | 23.6 | 39.7 | – | > 100 | 58.9 | 52 |
| O=c1[nH]/c(=C/c2ccc(OCc3ccccc3)cn2)c(=O)[nH]/c1=C/c1cccnc1 | > 61.5 | > 100 | > 75.2 | > 100 | > 100 | > 100 | 0.541 | – | 0.71 | 7.82 | > 36.8 |
| c1ccc(C2(c3cc4ccccc4[nH]3)OCCO2)cc1 | > 100 | > 100 | > 100 | – | > 100 | > 100 | – | 57 | > 100 | > 100 | > 100 |
| COC[C@@H](N=Cc1ccc(OC)cc1)C(C)C | > 100 | > 100 | > 100 | > 100 | > 100 | > 100 | – | > 100 | > 100 | > 100 | > 100 |
| Cc1[nH]c(=O)nc2c1C(=O)N(C(C)C)C(NC(C)C)S2 (configuration not stated) | > 100 | > 100 | > 100 | > 100 | > 100 | > 100 | > 100 | > 100 | > 100 | – | > 100 |
| CCOc1c(OC)cc(CNNc2nccs2)cc1OC | > 100 | – | > 100 | > 100 | > 100 | > 100 | > 100 | 92.7 | > 100 | > 100 | > 100 |
| COCN1C(=O)[C@@H]2C[C@@H](OC/C=C/CBr)CN2C(=O)c2ccccc21 | 35.7 | 88.5 | 50.4 | 54.6 | 53.9 | 51.3 | > 100 | 34.8 | 40.3 | – | 63.5 |
